The record followed here is patent publication US4778800A, “3-oxadiazole and 3-carboxylic acid beta-carboline derivatives, and their use as psychotropic agents” (Schering Aktiengesellschaft, priority 1985, dated 1988).

The structures appear in SMILES notation. Values after ≈ are worked out from the molar mass of the structure shown.

The target of one assay is benzodiazepine receptors. Put plainly: displacement of 3H-flunitrazepam from benzodiazepine receptors in vitro. Particulars: 3H-flunitrazepam 1.0 nM, 0° C., rat forebrain membranes, pH 7.1. The format is binding. (In general: Loss of bound radioactivity is the signal in a displacement assay; it reports binding, not function.)
Assay [1] in a line: anticonvulsive action: stopping of spasms induced by pentylenetetrazole (pentazol). Particulars: Mus musculus, ip, 0.5 h; mice, i.p., pentazol 150 mg/kg s.c. 15-30 minutes later; protects 50% of animals from spasms and death (Litchfield and Wilcoxon); read-out: PTZ ED50. The format is in vivo. The protocol: In the pharmacological tests, the compounds according to the invention especially show anxiolytic and anticonvulsive effectiveness. For examination of the anticonvulsive action, stopping of spasms induced by pentylenetetrazole (pentazol) was examined. Pentazol is administered subcutaneously in an amount of 150 mg/kg as a hydrochloric acid solution (pH 2-3) 15-30 minutes after the intraperitoneal application of the test substance. This amount induces clonic and tonic spasms which lead to death in untreated animals. The number of mice which show spasms and the number of them that died 30 minutes after pentazol are recorded.
The ED50 values indicated in the table were determined according to the method of Litchfield and Wilcoxon (J. Pharmacol. exp. Ther. 96 (1949) […]) as the amount of antagonistically acting substance which protects 50% of the animals from spasms and death.

In a further assay the test system is benzodiazepine receptor. Put plainly: in vivo displacement of 3H-flunitrazepam binding on the benzodiazepine receptor in live brain. Particulars: mice, normally i.p.; 3H-flunitrazepam i.v. after 15 minutes; 50% reduction of specific binding in forebrain.

`CCOC(C)c1ccc2[nH]c3cnc(-c4nc(CC)no4)c(CC)c3c2c1` (stereo not drawn) [6-CH(CH3)OC2 H5, C2 H5, drawing 9, 3-[5-(3-ethyl-1,2,4-oxadiazol)yl]-4-ethyl-6-(1-ethoxyethyl)-beta-carboline] showed an IC50 in vitro at benzodiazepine receptors of 0.7 ng/mL (≈ 1.92 nM). Also, the ED50 (as a rule, the dose at which the effect has come halfway, by size or by number of responders) in assay [1] was 2.3 mg/kg. The ED50 in vivo in the assay on benzodiazepine receptor is on record as 1.1 mg/kg.

`CCCOC(C)c1cccc2[nH]c3cnc(C(=O)OC(C)C)c(C)c3c12` (stereo not drawn) [5-CH(CH3)OC3 H7, CH3, drawing 5] returned an IC50 in vitro on benzodiazepine receptors of 0.75 ng/mL (≈ 2.12 nM). Further, the ED50 in assay [1] is 0.8 mg/kg. The same compound returned an ED50 in vivo in the assay on benzodiazepine receptor of 1.8 mg/kg.

Regarding `CCOC(CC)c1cccc2[nH]c3cnc(-c4nc(CC)no4)c(C)c3c12` (stereo not drawn) [5-CH(C2 H5)OC2 H5, CH3, drawing 7, 3-[5-(3-ethyl-1,2,4-oxadiazol)yl]-4-methyl-5-(1-ethoxopropyl)-beta-carboline], the IC50 in vitro at benzodiazepine receptors is 0.4 ng/mL (≈ 1.1 nM). The ED50 in assay [1] came to 0.6 mg/kg. The compound also returned an ED50 in vivo in the assay with benzodiazepine receptor of 3 mg/kg.

With `CCOC(=O)c1ncc2[nH]c3ccc(C(C)SCC)cc3c2c1C` (stereo not drawn) [6-CH(CH3)SC2 H5, CH3, COOC2 H5, 4-methyl-6-(1-ethylthioethyl)-beta-carboline-3-carboxylic acid ethyl ester], at benzodiazepine receptors, the IC50 in vitro worked out at 1.2 ng/mL (≈ 3.5 nM). The ED50 in assay [1] turned out to be 4 mg/kg. Moreover, the ED50 in vivo in the assay with benzodiazepine receptor came out at 0.43 mg/kg.

`CCOC(=O)c1ncc2[nH]c3ccc(C(C)OCC(F)(F)F)cc3c2c1C` (stereo not drawn) [6-CH(CH3)OCH2 CF3, CH3, COOC2 H5, 4-methyl-6-(1-(2,2,2-trifluoroethoxy)-ethyl)-beta-carboline-3-carboxylic acid ethyl ester] yielded an IC50 in vitro at benzodiazepine receptors of 0.8 ng/mL (≈ 2.1 nM). In addition, in assay [1], the ED50 turned out to be 2.4 mg/kg. The compound further yielded an ED50 in vivo in the assay on benzodiazepine receptor of 1.8 mg/kg.

The compound `CCOCc1cccc2[nH]c3cnc(C(=O)OCC)c(C)c3c12` [5-CH2 OC2 H5, CH3, COOC2 H5, reference compound] had an IC50 in vitro on benzodiazepine receptors of 0.8 ng/mL (≈ 2.56 nM). Further, the ED50 in assay [1] was above 100 mg/kg. For the same compound, the ED50 in vivo in the assay on benzodiazepine receptor is 1.0 mg/kg.

`CCOC(CC)c1cccc2[nH]c3cnc(-c4nc(CC)no4)c(COC)c3c12` (stereo not drawn) [5-CH(C2 H5)OC2 H5, CH2 OCH3, drawing 8] showed an IC50 in vitro at benzodiazepine receptors of 0.2 ng/mL (≈ 0.507 nM). The ED50 in assay [1] stood at 0.3 mg/kg. Moreover, the ED50 in vivo in the assay with benzodiazepine receptor is listed as 3 mg/kg.

In the case of `CCCOC(C)c1cccc2[nH]c3cnc(C(=O)OCC)c(C)c3c12` (stereo not drawn) [5-CH(CH3)OC3 H7, CH3, COOC2 H5, 5-(1-propoxyethyl)-4-methyl-beta-carboline-3-carboxylic acid ethyl ester], the IC50 in vitro on benzodiazepine receptors amounted to 0.4 ng/mL (≈ 1.18 nM). For the same compound, in assay [1], the ED50 turned out to be 1 mg/kg. This compound returned an ED50 in vivo with benzodiazepine receptor of 0.6 mg/kg.

Compound `CCOC(C)c1cccc2[nH]c3cnc(-c4nc(CC)no4)c(C)c3c12` (stereo not drawn) [5-CH(CH3)OC2 H5, CH3, drawing 6, 3-[5-(3-ethyl-1,2,4-oxadiazol)yl]-4-methyl-5-(1-ethoxyethyl)-beta-carboline] gave an IC50 in vitro at benzodiazepine receptors of 0.3 ng/mL (≈ 0.856 nM). Moreover, the ED50 in assay [1] came out at 0.4 mg/kg. In addition, in the assay on benzodiazepine receptor, the ED50 in vivo worked out at 0.09 mg/kg.

Regarding `CCOC(=O)c1ncc2[nH]c3cccc(COC)c3c2c1C` [5-CH2 OCH3, CH3, COOC2 H5, reference compound], at benzodiazepine receptors, the IC50 in vitro is 0.45 ng/mL (≈ 1.51 nM). Also, in assay [1], the median effective dose (ED50) was above 100 mg/kg. Besides, the ED50 in vivo in the assay on benzodiazepine receptor is on record as 2.0 mg/kg.
